From US20080009545A1, “Anticancer agents” (The Ohio State University Research Foundation, priority 2006, published 2008)

What was measured:
PC-3 cells [1] = assay: Apoptosis detection in PC-3 cells (cell death ELISA, cytochrome c release, PARP cleavage); type: cell-based, human; conditions: 24 h, serum-free medium
Protocol: Apoptosis detection by ELISA—Induction of apoptosis was assessed with a Cell Death Detection ELISA kit (Roche Diagnostics) by following the manufacturer's instruction. This test is based on the quantitative determination of cytoplasmic histone-associated DNA fragments in the form of mononucleosomes and oligonucleosomes after induced apoptotic death. In brief, 5×10^6 cells were cultured in a T-25 flask in 10% FBS-containing medium for 24 h, and were treated with the test agents at various concentrations in serum-free medium for 24 hours. Both floating and adherent cells were collected; cell lysates equivalent to 5×10^5 cells were used in the ELISA.
Western blot analysis of cytochrome c release into the cytoplasm—Cytosolic-specific, mitochondria-free lysates were prepared according to an established procedure (18). In brief, after individual treatments for 24 h, both the incubation medium and adherent cells in T-75 flasks were collected and centrifuged at 600×g for 5 min. […] Bands were transferred to nitrocellulose membranes and analyzed by immunoblotting with anti-cytochrome c antibodies as described below. […]

PrEC cells = assay: MTT cell viability, normal prostate epithelial cells (PrECs); type: cell-based, human; conditions: 24 h, Prostate Epithelial Cell Basal Medium with growth supplements
Protocol: (§1) Cell culture—LNCaP androgen-dependent (p53+/+) and PC-3 androgen-nonresponsive (P53−/−) prostate cancer cells were obtained from the American Type Culture Collection (Manassas, Va.). The preparation of the stable Bcl-xL-overexpressing LNCaP clone B3 (LNCaP/B3) was previously described (18). PC-3, LNCaP, and LNCaP/B3 cells were maintained in RPMI 1640 supplemented with 10% fetal bovine serum (FBS) at 37° C. in a humidified incubator containing 5% carbon dioxide. Normal human prostate epithelial (PrEC) cells were purchased from Cambrex Bio Science Walkersville, Inc. (East Tutherford, N.J.). Cells were maintained in Prostate Epithelial Cell Medium with growth supplements at 37° C. in a humidified incubator containing 5% carbon dioxide. The recommended seeding density for subculture is 2,500 cells/cm^2. It takes 6-9 days from subculture to attain confluency.
Cell viability analysis—The effect of individual test agents on cell viability was assessed by using the MTT assay in 6 to 12 replicates. PC3, LNCaP, and B3-LNCaP cells were seeded and incubated in poly-p-lysine-coated, 96-well, flat-bottomed plates in RPMI 1640 medium supplemented with 10% FBS medium for 24 hours. PrEC cells were seeded at the recommend density in 96-well, flat-bottomed plates in Prostate Epithelial Cell Medium with growth supplements for 3 days. All cells were exposed to various concentrations of test agents dissolved in ethanol (for α-tocopherol, α-tocopheryl succinate, and TS-3) or DMSO (all other test agents used) with a final concentration of 0.1% in serum-free RPMI 1640 medium for PC3, LNCaP, and LNCaP/B3 cells or in Prostate Epithelial Cell Basal Medium with growth supplements for PrEC cells. Controls received DMSO or ethanol vehicle at a concentration equal to that in drug-treated cells. The medium was removed, replaced by 200 μL of 0.5 mM MTT in 10% FBS-containing RPMI 1640 medium, and cells were incubated in the CO2 incubator at 37° C. for 2 h. […] Absorbance at 570 nm was determined on a plate reader.

Bcl-xL = Bcl-xL (Homo sapiens, UniProt Q07817); assay: Competitive fluorescence polarization assay, Bak BH3 peptide binding to Bcl-xL; conditions: for activity in inhibiting Bak peptide-Bcl-xL binding: even at 100 μM
Chain of Bcl-xL (Q07817 1-212 limits assumed): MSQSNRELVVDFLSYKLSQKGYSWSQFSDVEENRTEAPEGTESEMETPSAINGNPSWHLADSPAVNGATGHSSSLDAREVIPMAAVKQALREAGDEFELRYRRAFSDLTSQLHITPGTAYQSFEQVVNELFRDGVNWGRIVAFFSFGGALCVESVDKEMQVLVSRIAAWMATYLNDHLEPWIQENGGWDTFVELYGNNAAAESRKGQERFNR
Protocol: Competitive fluorescence polarization assay—The binding affinity of the test agent to Bcl-XL was analyzed by a competitive fluorescence polarization assay in which the ability of the agent to displace the binding of a Bak BH3-domain peptide to either Bcl-2 or Bcl-XL was determined. Flu-BakBH3, a Bak-BH3 peptide labeled at the NH2 terminus with fluorescein, was purchased from Genemed Synthesis (San Francisco, Calif.). COOH-terminal-truncated, His-tagged Bcl-XL was purchased from EMD Biosciences (San Diego, Calif.) and soluble glutathione S-transferase-fused Bcl-2 was obtained from Santa Cruz Biotechnology. The binding analysis was carried out in a dual-path length quartz cell with readings taken at […] at room temperature using a luminescence spectrometer according to an established procedure (19).
(§2) Determination of IC50 values—Data from cell viability and fluorescence polarization assays were analyzed by using the CalcuSyn software (Biosoft, Ferguson, Mo.) to determine IC50 values, in which the calculation was based on the medium-effect equation [i.e., log(fa/fu)=m log(D)−m log(Dm), where fa and fu denote fraction affected and unaffected, respectively; m represents the Hill-type coefficient signifying the sigmoidicity of the dose-effect curve; and D and Dm are the dose used and IC50, respectively.

Bcl-xL/Bak interactions = molecular target: T1, Bcl-xL/Bak interactions (Homo sapiens, UniProt Q07817); assay: Co-immunoprecipitation of Bcl-xL/Bak in PC-3 cells; type: cell-based
T1 construct: the endogenous counterpart in PC-3 cells; endogenous in cells; host or cells: PC-3 cells
T1 sequence (Q07817 whole entry): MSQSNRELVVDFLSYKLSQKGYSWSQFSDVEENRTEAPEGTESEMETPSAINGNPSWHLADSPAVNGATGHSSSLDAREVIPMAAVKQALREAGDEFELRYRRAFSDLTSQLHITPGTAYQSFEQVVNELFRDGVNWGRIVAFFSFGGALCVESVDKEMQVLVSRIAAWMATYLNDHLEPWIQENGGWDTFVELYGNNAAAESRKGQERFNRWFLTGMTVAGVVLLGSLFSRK
Protocol: (§3) Immunoblotting—Cells were seeded in 10% FBS-containing RPMI-1640 medium for 24 h and treated with various agents as aforementioned. After individual treatments for 24 h, the adherent cells in T-25 or T-75 flasks were scraped, combined with the medium, and centrifuged at 2200 rpm for 10 min. The […] were recovered, placed on ice, and triturated with 20 to 50 μL of a chilled lysis buffer (M-PER Mammalian Protein Extraction Reagent; Pierce, Rockford, Ill.), to which was added 1% protease inhibitor cocktail (set III; EMD Biosciences, Inc., San Diego, Calif.). After a 30-min incubation on ice, the mixture was centrifuged at 16,100×g for 3 min. […]
Co-immunoprecipitation—PC3 cells treated with 40 μM α-tocopheryl succinate or 10 μM TS-1 for 24 h were scraped off the flask, transferred into centrifuge tubes, and centrifuged at 2200 rpm for 10 min to pellet the cells. […] Equal amounts of proteins from these lysates, as determined by the Bradford assay, were mixed with anti-Bcl-2 or anti Bcl-XL antibodies in an orbital shaker at 23° C. for 2 h, followed by 100 μL of protein A-agarose bead slurry at 4° C. for 12 h. […]

Bcl-2/Bak interactions = molecular target: T2, Bcl-2/Bak interactions (Homo sapiens, UniProt P10415); assay: Co-immunoprecipitation of Bcl-2/Bak in PC-3 cells; type: cell-based
T2 construct: endogenous in cells; host or cells: PC-3 cells
T2 sequence (P10415 whole entry): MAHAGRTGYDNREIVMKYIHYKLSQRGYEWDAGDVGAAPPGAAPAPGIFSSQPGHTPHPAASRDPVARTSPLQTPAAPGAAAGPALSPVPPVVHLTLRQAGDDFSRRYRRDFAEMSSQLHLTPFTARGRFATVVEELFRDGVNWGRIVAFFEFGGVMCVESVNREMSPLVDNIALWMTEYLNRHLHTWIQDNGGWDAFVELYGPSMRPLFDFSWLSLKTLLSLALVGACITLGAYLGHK
Protocol: as §3
The pellet was resuspended in ice-cold 0.5 mL of radioimmunoprecipitation assay buffer (50 mM Tris-HCl, pH 7.4, 1% Nonidet P-40, 0.25% sodium deoxycholate, 150 mM NaCl, 1 mM EDTA, and 1% protease inhibitor cocktail) and gently mixed on an orbital shaker at 4° C. for 15 min, followed by centrifugation at 14,000×g for 15 min to yield cell lysates. […] Equal amounts of proteins from these lysates, as determined by the Bradford assay, were mixed with anti-Bcl-2 or anti Bcl-XL antibodies in an orbital shaker at 23° C. for 2 h, followed by 100 μL of protein A-agarose bead slurry at 4° C. for 12 h. […]

PC-3 cells [2] = assay: MTT cell viability, PC-3 cells; type: cell-based, human; conditions: for activity in suppressing cell viability: even at 100 μM, 24 h
Protocol: as §1
(§4) Cell viability analysis—The effect of individual test agents on cell viability was assessed by using the MTT assay in 6 to 12 replicates. PC3, LNCaP, and B3-LNCaP cells were seeded and incubated in poly-p-lysine-coated, 96-well, flat-bottomed plates in RPMI 1640 medium supplemented with 10% FBS medium for 24 hours. PrEC cells were seeded at the recommend density in 96-well, flat-bottomed plates in Prostate Epithelial Cell Medium with growth supplements for 3 days. […] Absorbance at 570 nm was determined on a plate reader.
as §2

LNCaP cells = assay: MTT cell viability, LNCaP cells; type: cell-based, human; conditions: for activity in suppressing cell viability: even at 100 μM, 24 h
Protocol: as §1, §4, §2

Bcl-2 = Bcl-2 (Homo sapiens, UniProt P10415); assay: Competitive fluorescence polarization assay, Bak BH3 peptide binding to Bcl-2; conditions: Flu-BakBH3, read-out: IC50, disruption of BH3 domain-mediated interactions (Bak BH3 peptide) with Bcl-2
Chain of Bcl-2 (P10415 whole entry, species assumed, the tested form may be a part): as the sequence (P10415 whole entry) above
Protocol: Competitive fluorescence polarization assay—The binding affinity of the test agent to Bcl-XL was analyzed by a competitive fluorescence polarization assay in which the ability of the agent to displace the binding of a Bak BH3-domain peptide to either Bcl-2 or Bcl-XL was determined. Flu-BakBH3, a Bak-BH3 peptide labeled at the NH2 terminus with fluorescein, was purchased from Genemed Synthesis (San Francisco, Calif.). COOH-terminal-truncated, His-tagged Bcl-XL was purchased from EMD Biosciences (San Diego, Calif.) and soluble glutathione S-transferase-fused Bcl-2 was obtained from Santa Cruz Biotechnology. […] Determination of IC50 values—Data from cell viability and fluorescence polarization assays were analyzed by using the CalcuSyn software (Biosoft, Ferguson, Mo.) to determine IC50 values, in which the calculation was based on the medium-effect equation [i.e., log(fa/fu)=m log(D)−m log(Dm), where fa and fu denote fraction affected and unaffected, respectively; m represents the Hill-type coefficient signifying the sigmoidicity of the dose-effect curve; and D and Dm are the dose used and IC50, respectively.

[3] = system: Bcl-xL, Bcl-2, Bax, Bak, Bad, and Bid; assay: Expression of Bcl-2 family members in PC-3 cells (Western blot); type: cell-based, human; conditions: 24 h, serum-free RPMI 1640
Protocol: (§5) Immunoblotting—Cells were seeded in 10% FBS-containing RPMI-1640 medium for 24 h and treated with various agents as aforementioned. After individual treatments for 24 h, the adherent cells in T-25 or T-75 flasks were scraped, combined with the medium, and centrifuged at 2200 rpm for 10 min. The […] were recovered, placed on ice, and triturated with 20 to 50 μL of a chilled lysis buffer (M-PER Mammalian Protein Extraction Reagent; Pierce, Rockford, Ill.), to which was added 1% protease inhibitor cocktail (set III; EMD Biosciences, Inc., San Diego, Calif.). After a 30-min incubation on ice, the mixture was centrifuged at 16,100×g for 3 min. Two μL of the suspension was taken for protein analysis using the Bradford assay kit (Bio-Rad, Hercules, Calif.); to the remaining solution was added the same volume of 2× SDS-polyacryl-amide gel electrophoresis sample loading buffer (100 mM Tris-HCl, pH 6.8, 4% SDS, 5% β-mercaptoethanol, 20% glycerol, and 0.1% bromphenol blue). The mixture was boiled for 10 min. Equal amounts of proteins were loaded onto 8-12% SDS-polyacrylamide gels. After electrophoresis, protein bands were transferred to nitrocellulose membranes in a semidry transfer cell. […]

caspase-9 = assay: Caspase-9 activation in PC-3 cells (Western blot); type: cell-based, human; conditions: 24 h
Protocol: as §5

LNCaP/B3 cells = assay: MTT cell viability, Bcl-xL-overexpressing LNCaP (LNCaP/B3) cells; type: cell-based, human; conditions: LNCaP/B3 vs LNCaP cells, 24-h exposure; to a degree greater than that of PC-3 cells
Protocol: as §1, §4

[4] = 24-h exposure, serum-free RPMI 1640, MTT, read-out: IC50, proliferation inhibition

SMILES: Cc1c(C)c2c(c(C)c1OC(=O)CCC(=O)O)CCC(C)(CCCC(C)CCCC(C)C)O2 (stereo not shown) [TS-1, succinic acid mono-[2-(4,8-dimethyl-nonyl)-2,5,7,8-tetramethyl-chroman-6-yl]ester]
- apoptotic death (PC-3 cells [1]): evidenced by DNA fragmentation, cytochrome c release, and PARP cleavage
- antiproliferative effect on normal prostate epithelial cells (PrEC cells): resistant
- difference in IC50 between TS-1 and α-tocopheryl succinate in blocking Bak peptide binding to Bcl-xL (Bcl-xL): 3 fold
- intracellular binding of Bak to Bcl-xL (Bcl-xL/Bak interactions; 10 μM): abolished
- intracellular binding of Bak to Bcl-2 (Bcl-2/Bak interactions; 10 μM): abolished

SMILES: Cc1c(C)c2c(c(C)c1O)CCC(C)(CCCC(C)CCCC(C)C)O2 (stereo not shown) [TS-4, 2-(4,8-dimethyl-nonyl)-2,5,7,8-tetramethyl-chroman-6-ol]
- activity in inhibiting Bak peptide-Bcl-xL binding (Bcl-xL): lacked appreciable activity
- activity in suppressing cell viability (PC-3 cells [2]): lacked appreciable activity
- activity in suppressing cell viability (LNCaP cells): lacked appreciable activity

SMILES: Cc1c(C)c2c(c(C)c1OC(=O)CCC(=O)O)CC[C@@](C)(CCC[C@H](C)CCC[C@H](C)CCCC(C)C)O2 [α-tocopheryl succinate, reference compound]
- IC50 (Bcl-2): 26 ± 2 µM
- apoptotic death (PC-3 cells [1]): evidenced by DNA fragmentation, cytochrome c release, and PARP cleavage
- antiproliferative effect on normal prostate epithelial cells (PrEC cells): resistant
- IC50 (Bcl-xL; fluorescence polarization, Flu-BakBH3, read-out: IC50, disruption of BH3 domain-mediated interactions (Bak BH3 peptide) with Bcl-xL): 26 ± 2 µM
- level of Bak associated with Bcl-xL (Bcl-xL/Bak interactions; 40 μM, 12 h, vs DMSO control): significantly reduced
- IC50 (PC-3 cells [2]; [4]): 40 µM
- IC50 (LNCaP cells; [4]): 15 µM
- level of Bak associated with Bcl-2 (Bcl-2/Bak interactions; 40 μM, 12 h, vs DMSO control): significantly reduced
- Bad expression [3]: decrease
- expression level of Bcl-2 members other than Bad (Bcl-xL, Bcl-2, Bax, Bak, Bid) [3]: did not cause appreciable changes
- caspase-9 activation (caspase-9): in a dose-dependent manner
- resistance to induced cell death by ectopic Bcl-xL expression (LNCaP/B3 cells): substantially increased the resistance

SMILES: Cc1c(C)c2c(c(C)c1OCCC(=O)O)CCC(C)(CCCC(C)CCCC(C)C)O2 (stereo not shown) [TS-5, 3-[2,5,7,8-tetramethyl-2-(4,8-dimethyl-nonyl)-chroman-6-yloxy]propionic acid]
- antiproliferative effect on normal prostate epithelial cells (PrEC cells): resistant

SMILES: Cc1c(C)c2c(c(C)c1OC(=O)CCC(=O)O)CCC(C)(C)O2 [TS-3, succinic acid mono-(2,2,5,7,8-pentamethyl-chroman-6-yl)ester]
- Bcl-xL binding affinity (effect of structural change) (Bcl-xL): abrogated the binding affinity
- activity in inhibiting Bak peptide-Bcl-xL binding (Bcl-xL): lacked appreciable activity
- activity in suppressing cell viability (PC-3 cells [2]): lacked appreciable activity
- activity in suppressing cell viability (LNCaP cells): lacked appreciable activity
